Data published in ChEMBL document CHEMBL1201862, “PubChem BioAssay data set” (2004).
Active and inactive are the calls of the source.

What was measured:
Caspase-3 = biological target: T1, Caspase-3 (Homo sapiens, UniProt P42574); type: functional;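 further: Dose-response selectivity test against caspase-3 for candidate inhibitors of sentrin-specific proteases (SENPs)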
T1 sequence (P42574 whole entry): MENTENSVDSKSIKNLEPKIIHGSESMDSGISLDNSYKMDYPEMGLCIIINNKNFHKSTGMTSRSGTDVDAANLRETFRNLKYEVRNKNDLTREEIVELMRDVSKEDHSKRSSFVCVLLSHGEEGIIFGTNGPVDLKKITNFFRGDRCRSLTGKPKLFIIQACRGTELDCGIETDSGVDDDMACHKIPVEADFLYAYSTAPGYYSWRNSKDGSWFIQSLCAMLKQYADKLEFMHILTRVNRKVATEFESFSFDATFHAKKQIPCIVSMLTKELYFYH

[1] = biological target: T2, Sentrin-specific protease 7 (Homo sapiens, UniProt Q9BQF6); type: functional;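 further: Luminescence-based dose-response confirmation of ultra-high-throughput screening hits, measuring inhibition of SENP7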
T2 sequence (Q9BQF6 whole entry): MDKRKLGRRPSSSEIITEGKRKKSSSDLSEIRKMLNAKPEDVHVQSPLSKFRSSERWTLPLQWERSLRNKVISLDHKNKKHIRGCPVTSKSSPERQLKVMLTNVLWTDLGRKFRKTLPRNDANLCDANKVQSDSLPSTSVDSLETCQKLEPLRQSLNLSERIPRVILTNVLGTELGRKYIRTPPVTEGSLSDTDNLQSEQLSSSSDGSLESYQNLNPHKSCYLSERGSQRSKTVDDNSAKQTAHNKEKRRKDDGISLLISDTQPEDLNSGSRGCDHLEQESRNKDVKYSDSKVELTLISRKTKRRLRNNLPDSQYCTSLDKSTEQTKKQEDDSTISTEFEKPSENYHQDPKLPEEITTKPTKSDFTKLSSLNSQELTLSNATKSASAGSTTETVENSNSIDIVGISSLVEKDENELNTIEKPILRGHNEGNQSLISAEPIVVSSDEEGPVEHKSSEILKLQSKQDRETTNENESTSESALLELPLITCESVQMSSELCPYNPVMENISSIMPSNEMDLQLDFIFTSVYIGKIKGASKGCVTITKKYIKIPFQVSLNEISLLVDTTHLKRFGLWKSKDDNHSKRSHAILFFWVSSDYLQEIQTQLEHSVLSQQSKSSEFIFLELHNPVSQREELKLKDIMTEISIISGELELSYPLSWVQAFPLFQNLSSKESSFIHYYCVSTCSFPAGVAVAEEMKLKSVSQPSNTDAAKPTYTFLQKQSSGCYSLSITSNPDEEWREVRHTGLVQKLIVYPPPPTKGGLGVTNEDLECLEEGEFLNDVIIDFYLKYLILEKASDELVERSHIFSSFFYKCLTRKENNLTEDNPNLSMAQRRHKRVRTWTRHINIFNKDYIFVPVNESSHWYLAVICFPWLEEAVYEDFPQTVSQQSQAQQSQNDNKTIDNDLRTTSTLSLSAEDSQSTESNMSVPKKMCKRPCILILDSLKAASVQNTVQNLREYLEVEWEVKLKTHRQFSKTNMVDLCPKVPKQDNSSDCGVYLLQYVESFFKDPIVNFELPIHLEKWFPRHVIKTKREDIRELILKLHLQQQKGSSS

[2] = biological target: T3, Sentrin-specific protease 6 (Homo sapiens, UniProt Q9GZR1); type: functional;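 further: Luminescence-based dose-response confirmatory assay of SENP6 inhibition, following up an ultra-high-throughput screen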
T3 sequence (Q9GZR1 whole entry): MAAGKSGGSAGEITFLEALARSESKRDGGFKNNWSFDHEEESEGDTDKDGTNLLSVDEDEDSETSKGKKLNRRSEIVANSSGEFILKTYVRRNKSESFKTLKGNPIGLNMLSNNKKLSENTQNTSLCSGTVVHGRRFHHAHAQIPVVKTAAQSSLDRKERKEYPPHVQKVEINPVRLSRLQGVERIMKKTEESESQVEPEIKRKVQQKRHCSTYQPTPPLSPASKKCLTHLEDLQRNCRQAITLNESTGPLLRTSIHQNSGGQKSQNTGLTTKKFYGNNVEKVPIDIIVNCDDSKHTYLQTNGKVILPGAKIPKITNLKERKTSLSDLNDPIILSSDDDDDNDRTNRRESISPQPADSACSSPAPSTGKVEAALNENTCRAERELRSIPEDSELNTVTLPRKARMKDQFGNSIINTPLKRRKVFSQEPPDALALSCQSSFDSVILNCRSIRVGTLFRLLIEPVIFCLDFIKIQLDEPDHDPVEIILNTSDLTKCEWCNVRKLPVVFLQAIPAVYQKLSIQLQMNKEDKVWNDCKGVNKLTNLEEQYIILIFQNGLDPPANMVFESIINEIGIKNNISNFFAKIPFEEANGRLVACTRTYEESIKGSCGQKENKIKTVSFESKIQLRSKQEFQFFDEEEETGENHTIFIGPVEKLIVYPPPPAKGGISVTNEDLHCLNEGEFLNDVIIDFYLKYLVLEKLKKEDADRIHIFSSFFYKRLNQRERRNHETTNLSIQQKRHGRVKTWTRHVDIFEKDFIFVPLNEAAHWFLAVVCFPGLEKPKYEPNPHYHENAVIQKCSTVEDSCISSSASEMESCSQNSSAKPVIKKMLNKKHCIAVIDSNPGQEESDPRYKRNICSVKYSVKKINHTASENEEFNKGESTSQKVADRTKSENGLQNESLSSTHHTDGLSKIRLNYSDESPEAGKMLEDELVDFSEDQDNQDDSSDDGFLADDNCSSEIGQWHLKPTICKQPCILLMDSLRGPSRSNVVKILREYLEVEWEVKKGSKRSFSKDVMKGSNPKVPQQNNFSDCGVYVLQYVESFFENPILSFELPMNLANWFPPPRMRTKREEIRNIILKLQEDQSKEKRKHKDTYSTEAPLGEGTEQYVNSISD

[3] = biological target: T4, Sentrin-specific protease 8 (Homo sapiens, UniProt Q96LD8); type: functional;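 further: luminescence read-out of SENP8 inhibition, dose-response confirmation following an ultra-high-throughput screen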
T4 sequence (Q96LD8 whole entry): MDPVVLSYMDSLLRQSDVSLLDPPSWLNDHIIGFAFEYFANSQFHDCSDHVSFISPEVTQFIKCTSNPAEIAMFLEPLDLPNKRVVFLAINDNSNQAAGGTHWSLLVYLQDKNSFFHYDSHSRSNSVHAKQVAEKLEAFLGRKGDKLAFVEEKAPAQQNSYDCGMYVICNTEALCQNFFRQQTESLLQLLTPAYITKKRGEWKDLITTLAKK

[4] = A549 cell cytotoxicity, dose response, cytotoxicity control, plate reader, cherry-pick, antagonist series (AID 743412); type: functional, cell-based
[5] = toxicity toward HepG2 liver cells – cell-based, plate reader, cherry-pick, antagonist series, cytotoxicity control, dose response (AID 743416); type: functional
[6] = blockers of bursicon-stimulated LGR2 cAMP reporter – cell-based, HEK293, CRE-luciferase reporter, cherry pick, set 2, dose response (AID 743343); type: functional;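 further: transfected cells were stimulated with diluted bursicon conditioned medium after compound addition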
[7] = blockade of melanocortin 4 receptor signaling – cell-based, plate reader, cherry pick, counter-screen for LGR2 antagonist project, dose response (AID 743444); type: functional;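 further: transfected HEK 293 cells stimulated with alpha-MSH peptide; potency of inhibitors of the alpha-MSH evoked signal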
[8] = biological target: T5, Long-chain-fatty-acid--AMP ligase FadD28 (Mycobacterium tuberculosis, UniProt P9WQ59); test: Fluorescence polarization aasay to screen for inhibitors that compete for the binding of FadD28 to a bisubstrate Measured in Biochemical System Using Plate Reader - 2147-01_Inhibitor_Dose_CherryPick_Activity.; type: functional, Mycobacterium tuberculosis H37Rv
T5 sequence (P9WQ59 whole entry): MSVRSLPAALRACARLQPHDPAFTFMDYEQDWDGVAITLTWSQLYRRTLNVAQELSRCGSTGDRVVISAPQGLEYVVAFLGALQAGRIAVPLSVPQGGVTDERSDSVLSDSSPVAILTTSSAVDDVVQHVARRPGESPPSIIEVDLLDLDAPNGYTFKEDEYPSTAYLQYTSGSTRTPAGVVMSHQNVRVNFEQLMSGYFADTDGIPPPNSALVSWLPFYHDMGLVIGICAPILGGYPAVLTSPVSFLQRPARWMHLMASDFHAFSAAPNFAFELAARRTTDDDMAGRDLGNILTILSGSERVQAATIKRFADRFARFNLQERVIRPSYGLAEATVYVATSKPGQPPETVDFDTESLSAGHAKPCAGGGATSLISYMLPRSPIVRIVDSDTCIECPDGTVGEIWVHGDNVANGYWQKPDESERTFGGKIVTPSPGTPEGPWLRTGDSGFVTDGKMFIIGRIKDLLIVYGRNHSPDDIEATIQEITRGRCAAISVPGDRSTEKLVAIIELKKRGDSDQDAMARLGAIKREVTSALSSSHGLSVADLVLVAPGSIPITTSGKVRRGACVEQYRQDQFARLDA

[9] = biological target: T6, Hepatocyte nuclear factor 4-alpha (Homo sapiens, UniProt P41235); type: functional, cell-based;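 further: biochemical luminescence-based dose-response counterscreen measuring inhibition of HNF4 dimerization, run alongside a screen for blockers of ABHD5–perilipin-5 interaction; split luciferase complementation of HNF4 fusion proteins in cell lysate measuring dimerization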
T6 sequence (P41235 whole entry): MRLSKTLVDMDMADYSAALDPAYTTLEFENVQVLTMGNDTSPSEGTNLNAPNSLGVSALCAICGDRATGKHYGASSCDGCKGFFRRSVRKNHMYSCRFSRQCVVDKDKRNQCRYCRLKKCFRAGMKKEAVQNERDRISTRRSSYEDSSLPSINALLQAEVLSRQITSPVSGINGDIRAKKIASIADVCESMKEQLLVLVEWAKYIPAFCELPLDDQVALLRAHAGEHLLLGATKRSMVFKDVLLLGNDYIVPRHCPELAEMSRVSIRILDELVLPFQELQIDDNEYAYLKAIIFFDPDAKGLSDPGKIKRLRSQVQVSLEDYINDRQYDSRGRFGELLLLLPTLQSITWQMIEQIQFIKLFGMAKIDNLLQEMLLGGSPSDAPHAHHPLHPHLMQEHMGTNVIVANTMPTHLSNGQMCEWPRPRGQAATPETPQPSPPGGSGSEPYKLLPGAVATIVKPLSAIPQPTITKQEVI

[10] = biological target: T7, DNA repair protein RAD52 homolog (Homo sapiens, UniProt P43351); type: functional, biochemical
T7 sequence (P43351 whole entry): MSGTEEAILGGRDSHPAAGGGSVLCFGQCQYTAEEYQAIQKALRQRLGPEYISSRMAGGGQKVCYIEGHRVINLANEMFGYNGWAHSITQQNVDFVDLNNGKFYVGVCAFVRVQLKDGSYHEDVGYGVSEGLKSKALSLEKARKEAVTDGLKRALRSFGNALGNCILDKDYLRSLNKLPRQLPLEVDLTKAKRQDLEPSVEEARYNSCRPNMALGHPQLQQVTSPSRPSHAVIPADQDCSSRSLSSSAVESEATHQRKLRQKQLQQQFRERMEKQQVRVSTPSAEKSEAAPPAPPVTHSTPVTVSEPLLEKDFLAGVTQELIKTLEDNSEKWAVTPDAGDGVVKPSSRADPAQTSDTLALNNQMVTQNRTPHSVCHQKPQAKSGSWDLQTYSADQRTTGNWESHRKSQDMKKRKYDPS

[11] = Trypanosoma cruzi growth suppression in host cells – NIH3T3 host cells, beta-gal luminescence, confirmation (AID 2044); type: functional, cell-based;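 further: intracellular parasites grown in NIH/3T3 mouse fibroblasts as host cells; luminescent beta-galactosidase reporter signal from transgenic T. cruzi replicating inside host cells; inhibitors lower the luminescence signal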
[12] = viability of PTEN-deleted HCT116 cells – cell-based, HCT116 PTEN knockout, dose response (AID 1047); type: functional;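 further: HCT116 colon tumor cells with PTEN knocked out; cells exposed to compound for 60 hours before readout; potency for loss of cell viability measured by luminescence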
[13] = NIH3T3 cell viability loss – ATP luminescence, mouse fibroblasts, counter-screen, dose response (AID 2010); type: functional, cell-based;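 further: cells exposed to compound for about 90 hours before reading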
[14] = viability of HCT116 lacking mutant beta-catenin – cell-based, human colon tumor, dose response (AID 1045); type: functional;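 further: HCT116 colon tumor cells with beta catenin knocked out; cells exposed to compound for 60 hours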
Paired box protein Pax-8 = Paired box protein Pax-8 (Homo sapiens, UniProt Q06710); test: PAX8 transcriptional activity inhibition in RMG-I – RMG-I cells, luciferase, cherry-pick, dose response (AID 687027); type: functional, cell-based;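 further: luciferase reporter driven by Pax8 target thyroperoxidase promoter measured by SteadyGlo luminescence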
Sequence of Paired box protein Pax-8 (Q06710 whole entry): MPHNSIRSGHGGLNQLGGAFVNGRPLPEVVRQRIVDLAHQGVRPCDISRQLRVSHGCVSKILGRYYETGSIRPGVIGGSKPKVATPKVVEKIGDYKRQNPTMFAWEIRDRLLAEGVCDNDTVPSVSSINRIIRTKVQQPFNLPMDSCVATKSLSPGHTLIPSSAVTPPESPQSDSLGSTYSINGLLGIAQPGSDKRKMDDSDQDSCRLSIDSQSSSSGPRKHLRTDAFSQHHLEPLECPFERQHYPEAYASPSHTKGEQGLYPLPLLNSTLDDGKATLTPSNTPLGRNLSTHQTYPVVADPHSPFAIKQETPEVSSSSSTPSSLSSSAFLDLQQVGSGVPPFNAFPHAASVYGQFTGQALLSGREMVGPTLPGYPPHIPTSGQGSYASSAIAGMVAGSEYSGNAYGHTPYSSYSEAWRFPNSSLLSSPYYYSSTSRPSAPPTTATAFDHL

[15] = general cell-killing toxicity readout – plate reader, dry powder samples, cytotoxicity control for PAX8 inhibitor project, dose response (AID 743021); type: functional, cell-based
[16] = OVCAR8 cell viability loss – plate reader, dry powder samples, PAX8 project, dose response (AID 743197); type: functional, cell-based; conditions: OVCAR-8
[17] = intracellular Trypanosoma cruzi inhibitors in host cells – cell-based, plate reader, cherry-pick samples, set 3, dose response (AID 651818); type: functional;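 further: compounds incubated with infected cells for about four days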
[18] = OVCAR-3 cell viability loss – plate reader, dry powder samples, PAX8 inhibitor project, dose response (AID 743044); type: functional, cell-based
[19] = A cytotoxicity screen of small molecule inhibitors of the PhoP region in Salmonella typhi identified in the primary screen. [Related pubchem assays: 1850, 1864, 1985 ]; type: functional
[20] = Luminescence Cell-Based Dose Response HTS to Identify Inhibitors of 5'UTR Stem-Loop Driven Prion Protein mRNA Translation in H4 Neuroglioblastoma Cells. [Related pubchem assays: 1827 (Project Summary), 1813 (Primary HTS)]; type: functional
[21] = alpha-synuclein stem-loop luciferase translation blockers – H4 neuroglioma cells, luminescence, confirmation (AID 1988); type: functional, cell-based

COc1ccc(C(=O)Nc2ccc3ccccc3n2)c(OC)c1OC
IC50 (Caspase-3): 6.1 µM (active) | IC50 [1]: 2.37 µM (active) | IC50 [2]: 2.95 µM (active) | IC50 [3]: > 100 µM (inactive) | AC50 [4]: > 52 µM (inactive) | AC50 [5]: > 52 µM (inactive) | AC50 [6]: 7.06 µM (active) | AC50 [7]: 6.75 µM (active)

COc1ccccc1NC(=O)Cn1cnc2c(oc3nc4c(cc32)CCCC4)c1=O
AC50 [8]: 77.8 µM (active)

CC(C)(C)NC(=O)C(c1ccnc2ccccc12)n1c(=O)c(-c2ccco2)nc2ccccc21 (centres undefined)
IC50 [9]: 3.18 µM (active)

O=C(NCc1ccccc1)C(c1cccc2ccccc12)n1c(=O)c(-c2ccco2)nc2ccccc21 (centres undefined)
IC50 [9]: 2.77 µM (active)

CCN(CC)CCCN(C(=O)c1ccc(OC)cc1)c1nc(-c2ccc(OC)cc2)cs1
AC50 [10]: 18.1 µM (active)

CN(C)CCCn1c(SCC(=O)N2c3ccccc3Sc3ccccc32)nc2ccccc2c1=O
EC50 [11]: 0.268 µM (active) | EC50 [12]: 5.64 µM (active) | EC50 [13]: > 60 µM (not active) | EC50 [14]: 4.73 µM (active) | AC50 [10]: 17.1 µM (active)

Oc1c(C(c2ccccc2)N2CCCCC2)ccc2ccccc12 (centres undefined)
IC50 [9]: 0.828 µM (active)

O=C(Nc1ccc(F)cc1)N1C[C@@H]2N[C@H](C1)[C@@H]2c1ccc(/C=C/c2ccccc2)cc1
AC50 (Paired box protein Pax-8): 10.7 µM (active) | AC50 [15]: 23.6 µM (active) | AC50 [16]: 26 µM (active)

CN(C)CCNC(=O)c1cccc2nc3c(ccc4ccccc43)nc12
AC50 [10]: 0.501 µM (active)

CN(C)c1ccc(/C=C2/C(=O)N(CCc3ccc(F)cc3)C(=O)N=C2O)cc1
AC50 [8]: 23.4 µM (active)

COc1ccc(S(=O)(=O)N(C)C[C@H]2Oc3c(NC(=O)Nc4ccc(C(F)(F)F)cc4)cccc3C(=O)N([C@@H](C)CO)C[C@H]2C)cc1
AC50 [17]: 7.67 µM (active) | AC50 (Paired box protein Pax-8): 7.04 µM (active) | AC50 [18]: 66.2 µM (active) | AC50 [15]: 51 µM (active)

Cc1c(C)n(C)c2ccc(C(=O)NCc3cccs3)cc12
EC50 [19]: > 50 µM (active) | AC50 [8]: 56.8 µM (active)

Cc1cnc(NC(=O)COc2ccccc2Cl)s1
EC50 [20]: 0.491 µM (active) | EC50 [21]: 1.25 µM (active) | AC50 [4]: > 52 µM (inactive) | AC50 [6]: 2.33 µM (active) | AC50 [7]: 2.3 µM (active)
